Patent US8952128B2, “Somatostatin-dopamine chimeric analogs” (priority 2012, dated 2015)
Bridge positions count the residues as written; N and C are the ends. Square brackets hold non-standard residues; d marks the D form. Peptide text beside a SMILES is read from it. * marks the point of attachment. X2 = CN1C[C@H](CSCC(=O)*)C[C@@H]2c3cccc4[nH]cc(c34)C[C@H]21; 4Pal = N[C@@H](Cc1ccncc1)C(=O)O; dDab = NCC[C@@H](N)C(=O)O

Tests used:
[1] = biological target: hSSTR2 (Homo sapiens (Human), UniProt P30874); experiment: Intracellular calcium mobilization assay (FLIPR Calcium 4), hSSTR2; type: cell-based; conditions: for Emax: read-out: hSSTR2 % Emax ± SEM;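 on all read-outs here: agonist activity read as intracellular calcium rise in cells expressing human SSTR2, loaded with a calcium-sensitive dye for 60 min at 37 °C, measured by FLIPR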
Description: (§5) The ability of select compounds according to the present invention to activate hSSTR2 and hDRD2 was determined by the intracellular calcium mobilization assay using FLIPR Calcium 4 assay kit (Molecular Devices).
(§6) Cells expressing hSSTR2 or hDRD2 were plated in 384-well microplates in tissue culture media and incubated for 16-24 hours at 37° C. in a humidified atmosphere with 5% CO2. Medium was replaced by loading buffer containing Hank's buffered saline, 20 mM HEPES, 2.5 mM probenecid and Calcium 4 dye, and the plates were incubated at 37° C. for 60 minutes.

[2] = biological target: hDRD2 (Homo sapiens (Human), UniProt P14416); experiment: cell-based; conditions: for Emax: read-out: hDRD2 % Emax ± SEM
Description: as §5, §6

[3] = biological target: hSSTR3 (Homo sapiens (Human), UniProt P32745); experiment: Somatostatin receptor radioligand binding assay, hSSTR3; conditions: CHO-K1 membranes, [125I-Tyr11]-SRIF-14; read-out: hSSTR3 Ki (nM) ± SEM
Description: (§1) The affinities of a test compound for the human somatostatin receptors were determined by radioligand binding assays in CHO-K1 cells stably transfected with each of the human somatostatin receptor subtypes, hSSTR1-5. […] Clonal cell lines stably expressing each of the somatostatin receptors were obtained by transfection into CHO-K1 cells (ATCC) and subsequently selected with culture media containing 0.8 mg/mL of G418 (Life Technologies).
(§2) Membranes for in vitro receptor binding assays were obtained by the following procedures. CHO-K1 cells expressing one of the somatostatin receptors were homogenized in ice-cold buffer with 10 mM Tris-HCl, 5 mM EDTA, 3 mM EGTA, 1 mM phenylmethylsuphonyl fluoride, pH 7.6, using Polytron PT10-35GT (Kinematica) at 18,000 rpm for 30 seconds and centrifuged at 500×g for 10 minutes. The supernatant containing the plasma membranes was centrifuged at 100,000×g for 30 minutes and the pellet was resuspended in buffer containing 20 mM glycine-glycine, 1 mM MgCl2, 250 mM sucrose, pH 7.2, for storage at −80° C.
(§3) For the hSSTR3 and 4 assays, membranes and various concentrations of test compounds were incubated in 96-well plates for 60 minutes at 25° C. with 0.05 nM [^125I-Tyr^11]-SRIF-14 (PerkinElmer Life Science) in 50 mM HEPES, 0.2% BSA, 5 mM MgCl2, 200 KIU/mL trasylol, 0.02 mg/mL bacitracin, and 0.02 mg/mL phenylmethylsuphonyl fluoride, pH 7.5.
(§4) The incubations were terminated by rapid filtration through GF/C glass microfiber filter plates (pre-wet with 0.3% polyethyleneimine and 0.1% BSA) using a 96-well cell harvester (Brandel). Plates were washed six times with 1 mL/well aliquots of ice-cold buffer containing 50 mM Tris buffer, pH 7.7. Specific binding was defined as the total radioligand bound minus the bound in the presence of 1000 nM SRIF-14.

[4] = biological target: hSSTR4 (Homo sapiens (Human), UniProt P31391); experiment: Somatostatin receptor radioligand binding assay, hSSTR4; conditions: CHO-K1 membranes, [125I-Tyr11]-SRIF-14; read-out: hSSTR4 Ki (nM) ± SEM
Description: as §1, §2, §3, §4

hSSTR2, sequence (P30874 whole entry): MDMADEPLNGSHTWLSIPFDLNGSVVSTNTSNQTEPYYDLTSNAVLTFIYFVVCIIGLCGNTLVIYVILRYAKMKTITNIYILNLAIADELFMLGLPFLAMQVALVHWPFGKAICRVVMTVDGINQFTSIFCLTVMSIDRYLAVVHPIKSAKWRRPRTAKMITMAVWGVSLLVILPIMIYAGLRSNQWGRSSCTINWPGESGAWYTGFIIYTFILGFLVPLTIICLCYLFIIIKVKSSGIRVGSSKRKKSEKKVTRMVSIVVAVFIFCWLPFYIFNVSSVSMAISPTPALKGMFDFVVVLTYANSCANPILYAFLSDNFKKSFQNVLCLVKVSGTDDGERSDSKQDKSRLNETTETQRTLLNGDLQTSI
hSSTR4, sequence (P31391 whole entry): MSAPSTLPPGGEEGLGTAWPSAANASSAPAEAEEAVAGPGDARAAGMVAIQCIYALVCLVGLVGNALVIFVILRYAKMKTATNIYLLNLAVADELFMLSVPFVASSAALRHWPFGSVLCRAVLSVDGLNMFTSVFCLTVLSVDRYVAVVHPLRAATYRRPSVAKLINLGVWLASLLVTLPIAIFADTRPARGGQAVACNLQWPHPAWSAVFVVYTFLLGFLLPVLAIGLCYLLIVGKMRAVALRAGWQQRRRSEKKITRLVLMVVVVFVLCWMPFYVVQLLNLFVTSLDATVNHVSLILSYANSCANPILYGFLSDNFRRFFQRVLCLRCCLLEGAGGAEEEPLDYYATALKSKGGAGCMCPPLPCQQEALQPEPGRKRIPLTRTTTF
hSSTR3, sequence (P32745 whole entry): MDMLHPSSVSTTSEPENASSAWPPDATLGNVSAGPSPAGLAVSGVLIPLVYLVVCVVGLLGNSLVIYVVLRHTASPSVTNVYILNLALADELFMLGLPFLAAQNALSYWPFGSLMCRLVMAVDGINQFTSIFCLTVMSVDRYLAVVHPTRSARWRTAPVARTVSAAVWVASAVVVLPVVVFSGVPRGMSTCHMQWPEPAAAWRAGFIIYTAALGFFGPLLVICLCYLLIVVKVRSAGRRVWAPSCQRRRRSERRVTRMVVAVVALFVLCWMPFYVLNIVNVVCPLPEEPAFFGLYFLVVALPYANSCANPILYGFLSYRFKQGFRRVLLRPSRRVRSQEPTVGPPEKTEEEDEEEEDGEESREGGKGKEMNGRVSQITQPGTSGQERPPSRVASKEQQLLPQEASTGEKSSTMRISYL

| SMILES | EC50 [1] [nM] | Emax [1] [%] | EC50 [2] [nM] | Emax [2] [%] | also measured |
| --- | --- | --- | --- | --- | --- |
| C[C@@H](O)[C@@H]1NC(=O)[C@H](CCCCN)NC(=O)[C@@H](Cc2c[nH]c3ccccc23)NC(=O)[C@H](Cc2ccncc2)NC(=O)[C@H](Cc2ccccc2)NC(=O)[C@H](CCCNC(=N)N)NC(=O)[C@H](NC[C@H](CCCCNC(=O)CSC[C@@H]2C[C@@H]3c4cccc5[nH]cc(c45)C[C@H]3N(C)C2)NC(=O)CSC[C@@H]2C[C@@H]3c4cccc5[nH]cc(c45)C[C@H]3N(C)C2)CCCCNC(=O)[C@H](Cc2ccc(O)cc2)NC1=O [Compound 8, Dop1-Lys(Dop1)-psi(CH2NH)-cyclo(DLys-Arg-Phe-4Pal-DTrp-Lys-Thr-Tyr)] | 29.8 ± 10.5 | 98.8 ± 2.6 | 18 ± 4.1 |  | improvement in % Emax over Reference Compound C ([1]; calcium mobilization): statistically significant improvement |
| C[C@@H](O)[C@@H]1NC(=O)[C@H](CCCCN)NC(=O)[C@@H](Cc2c[nH]c3ccccc23)NC(=O)[C@H](Cc2ccncc2)NC(=O)[C@H](Cc2ccccc2)NC(=O)[C@H](CCCNC(=N)N)NC(=O)[C@H](NC[C@H](CCCCNC(=O)CSC[C@@H]2C[C@@H]3c4cccc5[nH]cc(c45)C[C@H]3N(C)C2)NC(=O)CSC[C@@H]2C[C@@H]3c4cccc5[nH]cc(c45)C[C@H]3N(C)C2)CCCCNC(=O)[C@H](Cc2ccccc2)NC1=O [Compound 9, Dop1-Lys(Dop1)-psi(CH2NH)-cyclo(DLys-Arg-Phe-4Pal-DTrp-Lys-Thr-Phe)] | 22.2 ± 5.5 | 98.4 ± 1.6 | 15.5 ± 3.7 |  | improvement in % Emax over Reference Compound C ([1]; calcium mobilization): statistically significant improvement |
| C[C@@H](O)[C@@H]1NC(=O)[C@H](CCCCN)NC(=O)[C@@H](Cc2c[nH]c3ccccc23)NC(=O)[C@H](Cc2ccccc2)NC(=O)[C@H](Cc2ccccc2)NC(=O)[C@H](CCCNC(=N)N)NC(=O)[C@H](NCCS(=O)(=O)C[C@@H]2C[C@@H]3c4cccc5[nH]cc(c45)C[C@H]3N(C)C2)CCCCNC(=O)[C@H](Cc2ccc(F)cc2)NC1=O [Compound 10, Dop1(SO2)-psi(CH2NH)-cyclo(DLys-Arg-Phe-Phe-DTrp-Lys-Thr-4FPhe)] |  | 84.8 ± 13 |  |  | Ki [3]: 27.9 nM; Ki [4]: 20.6 nM |
| C[C@@H](O)[C@@H]1NC(=O)[C@H](CCCCN)NC(=O)[C@@H](Cc2c[nH]c3ccccc23)NC(=O)[C@H](Cc2ccncc2)NC(=O)[C@H](Cc2ccccc2)NC(=O)[C@H](CCCNC(=N)N)NC(=O)[C@H](NCC[S@+]([O-])C[C@@H]2C[C@@H]3c4cccc5[nH]cc(c45)C[C@H]3N(C)C2)CCCCNC(=O)[C@H](Cc2ccc(O)cc2)NC1=O [Compound 11, Dop1[(R)SO]-psi(CH2NH)-cyclo(DLys-Arg-Phe-4Pal-DTrp-Lys-Thr-Tyr)] |  | 92.3 ± 4.6 |  |  | Ki [3]: 30.9 ± 11.7 nM; Ki [4]: 2.1 ± 0.4 nM |
| C[C@@H](O)[C@@H]1NC(=O)[C@H](CCCCN)NC(=O)[C@@H](Cc2c[nH]c3ccccc23)NC(=O)[C@H](Cc2ccncc2)NC(=O)[C@H](Cc2ccccc2)NC(=O)[C@H](CCCNC(=N)N)NC(=O)[C@H](NCCS(=O)(=O)C[C@@H]2C[C@@H]3c4cccc5[nH]cc(c45)C[C@H]3N(C)C2)CCCCNC(=O)[C@H](Cc2ccc(O)cc2)NC1=O [Compound 20, Dop1(SO2)-psi(CH2NH)-cyclo(DLys-Arg-Phe-4Pal-DTrp-Lys-Thr-Tyr)] | 0.7 ± 0.1 | 100.2 ± 0.9 | 7.4 ± 1.5 |  |  |
| C[C@@H](O)[C@@H]1NC(=O)[C@H](CCCCN)NC(=O)[C@@H](Cc2c[nH]c3ccccc23)NC(=O)[C@H](Cc2ccncc2)NC(=O)[C@H](Cc2ccccc2)NC(=O)[C@H](CCCNC(=N)N)NC(=O)[C@H](NC(=O)CSC[C@@H]2C[C@@H]3c4cccc5[nH]cc(c45)C[C@H]3N(C)C2)CCCCNC(=O)[C@H](Cc2ccccc2)NC1=O [Compound 24, Dop1-cyclo(DLys-Arg-Phe-4Pal-DTrp-Lys-Thr-Phe)] (X2-[dK]RF[4Pal][dW]KTF; lactam 1-C) |  |  | 37.3 ± 6.4 |  | improvement in EC50 over Reference Compound A ([1]; Student's t-test, one-tailed, p <0.05): statistically significant improvement; EC50 value lower than that for Reference Compound A ([1]; calcium mobilization, Tables IV and VI): about 9 fold |
| C[C@@H](O)[C@@H]1NC(=O)[C@H](CCCCN)NC(=O)[C@@H](Cc2c[nH]c3ccccc23)NC(=O)[C@H](Cc2ccccc2)NC(=O)[C@H](Cc2ccccc2)NC(=O)[C@H](CCCNC(=N)N)NC(=O)[C@H](NC(=O)[C@@H](Cc2ccc(O)cc2)NC(=O)CSC[C@@H]2C[C@@H]3c4cccc5[nH]cc(c45)C[C@H]3N(C)C2)CCCCNC(=O)[C@H](Cc2ccccc2)NC1=O [Compound 37, Dop1-DTyr-cyclo(DLys-Arg-Phe-Phe-DTrp-Lys-Thr-Phe)] (X2-[dY][dK]RFF[dW]KTF; lactam 2-C) |  | 85.5 ± 6.7 |  | 93.7 ± 4.3 |  |
| C[C@@H](O)[C@@H]1NC(=O)[C@H](CCCCN)NC(=O)[C@@H](Cc2c[nH]c3ccccc23)NC(=O)[C@H](Cc2ccccc2)NC(=O)[C@H](Cc2ccccc2)NC(=O)[C@H](CCCNC(=N)N)NC(=O)[C@H](NC[C@@H](Cc2ccc(O)cc2)NC(=O)CSC[C@@H]2C[C@@H]3c4cccc5[nH]cc(c45)C[C@H]3N(C)C2)CCCCNC(=O)[C@H](Cc2ccccc2)NC1=O [Compound 41, Dop1-DTyr-psi(CH2NH)-cyclo(DLys-Arg-Phe-Phe-DTrp-Lys-Thr-Phe)] | 29.6 | 104 | 62.6 |  |  |
| C[C@@H](O)[C@@H]1NC(=O)[C@H](CCCCN)NC(=O)[C@@H](Cc2c[nH]c3ccccc23)NC(=O)[C@H](Cc2ccccc2)NC(=O)[C@H](Cc2ccccc2)NC(=O)[C@H](CCCNC(=N)N)NC(=O)[C@H](NC[C@H](Cc2ccc(O)cc2)NC(=O)CCN(C[C@@H]2C[C@@H]3c4cccc5[nH]cc(c45)C[C@H]3N(C)C2)S(C)(=O)=O)CCCCNC(=O)[C@H](Cc2ccc(F)cc2)NC1=O [Compound 42, [N-(D-6-methyl-8β-ergolinylmethyl)-N-(methylsulfonyl)]-aminopropionyl-Tyr-psi(CH2NH)-cyclo(DLys-Arg-Phe-Phe-DTrp-Lys-Thr-4FPhe)] |  | 78.6 ± 2.3 |  | 94.5 ± 0.3 |  |
| C[C@@H](O)[C@@H]1NC(=O)[C@H](CCCCN)NC(=O)[C@@H](Cc2c[nH]c3ccccc23)NC(=O)[C@H](Cc2ccccc2)NC(=O)[C@H](Cc2ccccc2)NC(=O)[C@H](CCCNC(=N)N)NC(=O)[C@H](NC[C@H](CCCCNC(=O)CSC[C@@H]2C[C@@H]3c4cccc5[nH]cc(c45)C[C@H]3N(C)C2)NC(=O)CSC[C@@H]2C[C@@H]3c4cccc5[nH]cc(c45)C[C@H]3N(C)C2)CCCCNC(=O)[C@H](Cc2ccc(F)cc2)NC1=O [Compound 47, Dop1-Lys(Dop1)-psi(CH2NH)-cyclo(DLys-Arg-Phe-Phe-DTrp-Lys-Thr-4FPhe)] | 77.5 ± 19 | 96.2 ± 5.9 | 46.6 ± 12.2 |  | improvement in % Emax over Reference Compound C ([1]; calcium mobilization): statistically significant improvement |
| C[C@@H](O)[C@@H]1NC(=O)[C@H](CCCCN)NC(=O)[C@@H](Cc2c[nH]c3ccccc23)NC(=O)[C@H](Cc2ccccc2)NC(=O)[C@H](Cc2ccccc2)NC(=O)[C@H](CCCNC(=N)N)NC(=O)[C@H](NC(=O)CSC[C@@H]2C[C@@H]3c4cccc5[nH]cc(c45)C[C@H]3N(C)C2)CCNC(=O)[C@H](Cc2ccccc2)NC1=O [Reference Compound A, Dop1-cyclo(DDab-Arg-Phe-Phe-DTrp-Lys-Thr-Phe), reference compound] (X2-[dDab]RFF[dW]KTF; lactam 1-C) |  | 86.2 ± 7 |  | 59.7 ± 7 |  |
| C[C@@H](O)[C@@H]1NC(=O)[C@H](CCCCN)NC(=O)[C@@H](Cc2c[nH]c3ccccc23)NC(=O)[C@H](Cc2ccccc2)NC(=O)[C@H](Cc2ccccc2)NC(=O)[C@H](CCCNC(=N)N)NC(=O)[C@H](NC(=O)[C@H](Cc2ccc(O)cc2)NC(=O)CSC[C@@H]2C[C@@H]3c4cccc5[nH]cc(c45)C[C@H]3N(C)C2)CCNC(=O)[C@H](Cc2ccccc2)NC1=O [Reference Compound B, Dop1-Tyr-cyclo(DDab-Arg-Phe-Phe-DTrp-Lys-Thr-Phe), reference compound] (X2-Y[dDab]RFF[dW]KTF; lactam 2-C) |  | 66.7 ± 5.8 |  | 92.8 ± 6.6 |  |
| C[C@@H](O)[C@@H]1NC(=O)[C@H](CCCCN)NC(=O)[C@@H](Cc2c[nH]c3ccccc23)NC(=O)[C@H](Cc2ccccc2)NC(=O)[C@H](Cc2ccccc2)NC(=O)[C@H](CCCNC(=N)N)NC(=O)[C@H](NC(=O)[C@H](CCCCNC(=O)CSC[C@@H]2C[C@@H]3c4cccc5[nH]cc(c45)C[C@H]3N(C)C2)NC(=O)CSC[C@@H]2C[C@@H]3c4cccc5[nH]cc(c45)C[C@H]3N(C)C2)CCNC(=O)[C@H](Cc2ccccc2)NC1=O [Reference Compound C, Dop1-Lys(Dop1)-cyclo(DDab-Arg-Phe-Phe-DTrp-Lys-Thr-Phe), reference compound] (X2-K(X2)[dDab]RFF[dW]KTF; lactam 2-C) | 68.7 ± 40.8 |  | 112 ± 39.2 |  |  |
